Numbering of substitutions follows the chain as printed. Entries after “also recorded” stand apart in the source; their conditions may differ. One block for each molecule: values may come before it. Square brackets hold non-standard residues; d marks the D form. Ends that are not written are not given here. * marks the point of attachment. 125I = iodine-125 radiolabel, [125I]*; Aib = CC(C)(N)C(=O)O; For = O=C*
Tests used:
CGRP receptors = target: T1, CGRP receptors (Homo sapiens, UniProt O60894+Q16602); assay: Binding to membranes from SK-N-MC cells (CGRP receptors), displacement of [125I]human-CGRP; conditions: read-out: Receptor IC50 in nM [mean ± SEM (n)] CGRP
T1 construct: SK-N-MC cells (ATCC No. HTB-10) were homogenized in 50 mM Hepes buffer; host or cells: SK-N-MC human neuroblastoma cells

amylin receptors = target: T2, amylin receptors (Rattus norvegicus, UniProt P32214); assay: Binding to rat nucleus accumbens membranes (amylin receptors), displacement of 125I-BH-rat amylin; conditions: read-out: Receptor IC50 in nM [mean ± SEM (n)] Amylin
T2 sequence (P32214 25-516): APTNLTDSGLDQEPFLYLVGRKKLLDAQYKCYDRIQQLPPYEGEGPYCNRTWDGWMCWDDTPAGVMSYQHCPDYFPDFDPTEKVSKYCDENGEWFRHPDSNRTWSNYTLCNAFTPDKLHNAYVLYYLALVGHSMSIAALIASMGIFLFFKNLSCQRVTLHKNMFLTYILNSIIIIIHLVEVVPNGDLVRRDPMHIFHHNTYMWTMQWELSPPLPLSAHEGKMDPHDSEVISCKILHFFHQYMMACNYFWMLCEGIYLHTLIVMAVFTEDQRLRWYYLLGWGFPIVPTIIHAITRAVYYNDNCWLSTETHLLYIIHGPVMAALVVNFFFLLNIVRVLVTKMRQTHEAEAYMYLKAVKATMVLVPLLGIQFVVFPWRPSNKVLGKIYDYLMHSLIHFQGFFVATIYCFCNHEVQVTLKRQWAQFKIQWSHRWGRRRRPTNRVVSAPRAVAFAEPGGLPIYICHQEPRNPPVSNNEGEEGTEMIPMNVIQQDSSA

calcitonin receptors [1] = target: T3, calcitonin receptors (Homo sapiens, UniProt P30988); assay: Binding to membranes from T47D cells (calcitonin receptors), displacement of [125I]salmon calcitonin; design: Membranes were prepared from confluent cultures of T47D cells; host or cells: T47D human breast carcinoma cells; conditions: for IC50: T47D membranes, mean ± SEM (n), read-out: Receptor IC50 in nM [mean ± SEM (n)] Calcitonin; for affinity for calcitonin receptors compared with amylin receptors: calcitonin (T47D) versus amylin (nucleus accumbens) receptors
T3 sequence (P30988 25-474): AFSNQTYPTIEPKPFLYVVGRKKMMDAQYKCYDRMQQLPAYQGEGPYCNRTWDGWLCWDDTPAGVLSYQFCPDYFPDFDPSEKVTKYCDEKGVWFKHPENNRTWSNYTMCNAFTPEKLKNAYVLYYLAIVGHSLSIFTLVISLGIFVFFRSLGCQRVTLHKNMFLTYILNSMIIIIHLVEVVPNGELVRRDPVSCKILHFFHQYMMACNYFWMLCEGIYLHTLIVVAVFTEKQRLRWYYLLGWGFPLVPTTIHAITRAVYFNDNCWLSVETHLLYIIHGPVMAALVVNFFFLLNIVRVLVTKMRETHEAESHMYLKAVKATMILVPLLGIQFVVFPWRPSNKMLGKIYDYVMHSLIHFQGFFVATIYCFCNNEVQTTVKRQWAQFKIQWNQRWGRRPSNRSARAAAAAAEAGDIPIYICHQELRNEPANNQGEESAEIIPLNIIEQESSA

gastric emptying in rats = assay: Phenol red gastric emptying assay in conscious rats; conditions: for inhibition of gastric emptying: conscious rat model, adrenomedullin at highest doses (100 μg); for ED50 inhibiting gastric emptying (FIG. 7): conscious rats; for dose at which suppression of gastric emptying was complete / ED50 for inhibition of gastric emptying: subcutaneous; for ED50 for inhibition of gastric emptying: normal (Harlan Sprague Dawley) rats, ±0.19 log units
calcitonin receptors [2] = target: T3, calcitonin receptors; assay: Adenyl cyclase stimulation, cyclic AMP accumulation in MCF7-7 cells; format: cell-based
[3] = target: human calcitonin receptors (T47D and MCF7-7 breast carcinoma cells) (human) (UniProt P30988); assay: cell-based or functional assay
[4] = Effect on plasma glucose, lactate and calcium levels in anesthetized rats; format: in vivo, rat; conditions: 100 μg subcutaneous
[5] = system: effects of rat amylin on plasma levels of glucose, lactate and calcium; assay: Effect on plasma glucose, lactate, calcium and mean arterial pressure in the presence of amylin, anesthetized rats; format: in vivo
isolated soleus muscle = conditions: insulin 7.1 nM
[6] = target: T4, human calcitonin receptors (T47D and MCF7-7 breast carcinoma cells) (human, UniProt P30988 25-474); assay: radioligand competition, [125I]salmon calcitonin on T47D cell membranes
T4 construct: whole, on cells; also called calcitonin (T47D) receptors
T4 sequence (looked up): T3 sequence (P30988 25-474)

[7] = target: T5, human CGRP receptors (SK-N-MC neuroblastoma cells) (human, UniProt Q16602 23-461; O60894 27-148); assay: radioligand competition, SK-N-MC membranes against rat nucleus accumbens membranes
T5 construct: whole, on cells; also called CGRP (SK-N-MC) receptors

[8] = target: T6, amylin receptors of rat nucleus accumbens membranes (rat); assay: radioligand competition, 125I-BH-rat amylin on rat nucleus accumbens membranes
T6 chain 1: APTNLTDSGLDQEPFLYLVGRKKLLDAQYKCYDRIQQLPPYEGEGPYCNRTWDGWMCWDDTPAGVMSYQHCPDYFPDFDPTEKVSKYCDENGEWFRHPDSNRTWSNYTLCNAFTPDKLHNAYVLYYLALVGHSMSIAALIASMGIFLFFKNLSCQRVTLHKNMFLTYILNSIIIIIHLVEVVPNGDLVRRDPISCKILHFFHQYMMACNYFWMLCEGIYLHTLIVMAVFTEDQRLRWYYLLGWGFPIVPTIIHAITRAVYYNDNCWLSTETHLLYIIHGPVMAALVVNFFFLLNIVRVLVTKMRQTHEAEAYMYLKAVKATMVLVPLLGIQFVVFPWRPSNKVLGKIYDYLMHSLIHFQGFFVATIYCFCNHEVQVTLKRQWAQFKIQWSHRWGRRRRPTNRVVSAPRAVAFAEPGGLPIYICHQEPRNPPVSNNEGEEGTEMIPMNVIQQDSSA
T6 chain 2: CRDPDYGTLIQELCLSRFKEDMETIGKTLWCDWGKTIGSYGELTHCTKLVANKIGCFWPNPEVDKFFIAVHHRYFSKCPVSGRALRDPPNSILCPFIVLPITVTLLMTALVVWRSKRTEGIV

[9] = target: T4, human calcitonin receptors (T47D and …); assay: cell-based or functional assay
[10] = target: T4, human calcitonin receptors (T47D and …); assay: radioligand Kd used to derive Ki, T47D cell membranes
[11] = target: T7, rat calcitonin C1a receptor (rat, UniProt P32214 25-516); assay: cell-based or functional assay
T7 sequence (looked up): T2 sequence (P32214 25-516)

[12] = target: T5, human CGRP receptors (SK-N-MC …); assay: radioligand competition, [125I]human CGRP on SK-N-MC cell membranes
[13] = intravenous preinfusion of test compound, then rat amylin 50 μg bolus + 50 μg/hour, versus saline preinfusion

T5 sequence (Q16602 23-461, chain 1 of 2): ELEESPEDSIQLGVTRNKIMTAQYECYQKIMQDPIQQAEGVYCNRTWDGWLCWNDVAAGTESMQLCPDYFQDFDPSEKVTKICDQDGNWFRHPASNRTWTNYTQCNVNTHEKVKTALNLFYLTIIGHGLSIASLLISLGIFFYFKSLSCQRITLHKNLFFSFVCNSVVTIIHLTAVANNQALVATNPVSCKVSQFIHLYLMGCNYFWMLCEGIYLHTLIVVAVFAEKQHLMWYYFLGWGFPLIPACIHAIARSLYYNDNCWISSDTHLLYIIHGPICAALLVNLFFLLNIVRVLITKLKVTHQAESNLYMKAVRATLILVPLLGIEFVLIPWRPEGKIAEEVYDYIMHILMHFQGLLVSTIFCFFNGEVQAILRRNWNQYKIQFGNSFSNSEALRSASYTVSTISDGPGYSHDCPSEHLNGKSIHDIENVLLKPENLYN
T5 sequence (O60894 27-148, chain 2 of 2): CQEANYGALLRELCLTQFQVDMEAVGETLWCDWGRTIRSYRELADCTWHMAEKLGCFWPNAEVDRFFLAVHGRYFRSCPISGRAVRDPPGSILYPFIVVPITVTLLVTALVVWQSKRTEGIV
T1 sequence (Q16602 23-461): as the sequence (Q16602 23-461, chain 1 of 2) above
T1 sequence (O60894 27-148 partner): as the sequence (O60894 27-148, chain 2 of 2) above

Molecule: LSTSVLGRLSQELHRLQTYPRTNTGSNTY [Compound 3]
- IC50 (CGRP receptors): > 10000 nM
- IC50 (amylin receptors): 37 ± 4.6 nM
- IC50 (calcitonin receptors [1]): 1.45 nM
- affinity for calcitonin receptors compared with amylin receptors (calcitonin receptors [1]): greater affinity for calcitonin receptors than for amylin receptors

Molecule: rat calcitonin
- inhibition of gastric emptying (gastric emptying in rats): dose-dependently inhibit gastric emptying
- ED50 inhibiting gastric emptying (FIG. 7) (gastric emptying in rats): 0.41 μg/rat

Molecule: LSTAVLGRLSQELHRLQTYPRTNTGSNTY [Compound 6]
- IC50 (CGRP receptors): > 10000 nM
- fold less potent than human calcitonin in stimulating adenyl cyclase activity (calcitonin receptors [2]): 80 fold
- EC50 (calcitonin receptors [2]; read-out: EC50 cyclic AMP accumulation / adenylyl cyclase activity): 34 nM
- IC50 (amylin receptors): 18.6 ± 5.3 nM
- IC50 (calcitonin receptors [1]): 0.56 nM
- affinity for calcitonin receptors compared with amylin receptors (calcitonin receptors [1]): greater affinity for calcitonin receptors than for amylin receptors

Molecule: Leu-Ser-Thr-Ala-Val-Leu-Gly-Arg-Leu-Ser-Gln-Glu-Leu-His-Arg-Leu-Gln-Thr-Tyr-Pro-Arg-Thr-Asn-Thr-Gly-Ser-Asn-Thr-Tyr [Compound 4]
- fold less potent than human calcitonin in stimulating adenyl cyclase activity (calcitonin receptors [2]): 7 fold

- fold less potent than calcitonin in stimulating adenyl cyclase activity, MCF7-7 cells [3]: 5 fold
- fold less potent than calcitonin in stimulating adenyl cyclase activity, T47D cells [3]: 7 fold
Molecule: human amylin (from UniProt P10997 34-70) (ligand)

Molecule: Salmon calcitonin
- inhibition of gastric emptying (gastric emptying in rats): dose-dependently inhibit gastric emptying
- ED50 inhibiting gastric emptying (FIG. 7) (gastric emptying in rats): 0.12 μg/rat

Molecule: Adrenomedullin: observed to behave as a CGRP agonist but not as an amylin or calcitonin agonist (YRQSMNNFQGLRSFGCRFGTCTVQKLAHQIYQFTDKDKDNVAPRSKISPQGY; ends and bridges not checked; cysteine pairing not given here; UniProt P35318 95-146, looked up)
- inhibition of gastric emptying (gastric emptying in rats): does not inhibit gastric emptying

Molecule: 4-methylpentanoyl-Ser-Thr-Ala-Val-Leu-Aib-Lys(For)-Leu-Ser-Gln-Glu-Leu-Aib-Lys(For)-Leu-Gln-Thr-Tyr-Pro-Arg-Thr-Asn-Thr-Gly-Ser-Gly-Thr-Pro [Compound 2]
- fold less potent than human calcitonin in stimulating adenyl cyclase activity (calcitonin receptors [2]): 3.5 fold
- functional activity at calcitonin receptors (calcitonin receptors [2]): partial agonist activity
- increase in cyclic AMP as percent of the increase produced by human calcitonin (calcitonin receptors [2]): approximately 20%
- plasma calcium concentration [4]: caused a fall in plasma calcium concentration
- plasma glucose [4]: neither Compound 1 nor Compound 2 increased
- plasma lactate [4]: neither Compound 1 nor Compound 2 increased
- plasma calcium levels ([5]; after infusion of test compound, with subsequent amylin infusion): A fall in plasma calcium levels
- increase in plasma glucose after amylin administration [5, 13]: smaller increases
- increase in plasma lactate after amylin administration [5, 13]: smaller increases
- reversal of the blood pressure lowering effect of amylin (mean arterial pressure) ([5]; intravenous preinfusion of test compound, then rat amylin infusion): lack of ability of these compounds to reverse the blood pressure lowering effect of amylin
- amylin antagonist activity, reversal of the effect of amylin on insulin-stimulated incorporation of glucose into glycogen (isolated soleus muscle; amylin 100 nM, test compound 1 μM): reversed
- amylin agonist activity, inhibition of insulin-stimulated incorporation of glucose into glycogen (isolated soleus muscle; test compound 100 nM): no discernable amylin agonist activity; also recorded: neither Compound 1 (100 nM) nor Compound 2 (100 nM) affected the response to insulin
- inhibition of gastric emptying (gastric emptying in rats): behaved as potent amylin and calcitonin agonists in inhibition of gastric emptying
- affinity for calcitonin receptors compared with amylin receptors (calcitonin receptors [1]): greater affinity for calcitonin receptors than for amylin receptors

Molecule: rat amylin: Synthetic rat amylin (Bachem, Torrance, Calif.), positive control
- plasma calcium concentration [4]: fall
- plasma glucose [4]: increase
- plasma lactate [4]: increase
- dose at which suppression of gastric emptying was complete (gastric emptying in rats; diabetic rats): 10 µg
- ED50 for inhibition of gastric emptying (gastric emptying in rats; 5 minutes before gavage): 0.43 µg
- ED50 for inhibition of gastric emptying (gastric emptying in rats): 0.60 nmol/kg
- dose at which suppression of gastric emptying was complete (gastric emptying in rats; normal HSD rats): 1 µg

- IC50 [6]: 1.45 nM
- fold lower affinity than for the amylin receptors [7]: ≥ 300 fold
- IC50 [8]: 37 nM
B1: Compound 3 (peptide)
peptide: XLSTSVLGRLSQELHRLQTYPRTNTGSNTY
modifications: N-terminal acetyl (Ac-Leu)

- EC50 of adenylyl cyclase stimulation, MCF7-7 cells [9]: 34 nM
- fold lower potency than human calcitonin, MCF7-7 cells [9]: 80 fold
- IC50 [6]: 0.56 nM
- fold lower affinity than for the amylin receptors [7]: ≥ 300 fold
- IC50 [8]: 18.6 nM
B2: Compound 6 (peptide)
peptide: B1 peptide with S5A
modifications: N-terminal acetyl (Ac-Leu)

- Kd [10]: 0.019 nM
B3: [^125I]salmon calcitonin (ligand, UniProt P01263 83-114, looked up)
peptide: CSNLSTCVLGKLSQELHKLQTY(125I)PRTNTGSGTP
modifications: ends and bridges not checked
notes: mature; also called labeled salmon calcitonin

- EC50 of cyclic AMP accumulation, T47D cells [9]: 2.2 nM
- EC50 of adenyl cyclase activity, cells expressing rat calcitonin C1a receptors [11]: 0.97 nM
- IC50 [12]: 160 nM
- IC50 [6]: 0.22 nM
- fold lower affinity than for the amylin receptors [7]: ≥ 300 fold
- IC50 [8]: 0.25 nM
B4: Compound 1 (peptide)
peptide: LSTCVLGRLSQELHRLQTYPRTNTGSNTY
notes: Synthetic 29-residue peptide

- IC50 [6]: 93 nM
B5: Compound 8 (peptide)
peptide: VL[Aib]K(For)LSQEL[Aib]K(For)LQTYPRTNTGSNTY-NH2

Reference: patent publication US6936584B1, “Mixed amylin activity compounds” (Amylin Pharmaceuticals, Inc., priority 1998, dated 2005)
